Publication PMC10716148 (Scientific Reports, 2023)
Entries after “also recorded” stand apart in the source; their conditions may differ.

Key:
[1] = system: B16F10 melanoma cells; assay: Anti-melanogenic assay (melanin content) in B16F10 cells; format: cell-based, Murine; conditions: mean ± SD (n = 3)
Description: (§1) Murine melanoma B16F10 cells (obtained from DS Pharma Biomedical, Japan) were cultivated in Dulbecco's Modified Eagle Medium (DMEM), a liquid medium supplemented with 10% fetal bovine serum (FBS) and 1% penicillin/streptomycin. The cells were incubated at a temperature of 37 °C within a controlled humidified environment containing 5% CO2. To facilitate subculture, the cells were detached from the culture flask using trypsin solution. Subsequently, the cells were subjected to staining with trypan blue solution and quantified using a hemocytometer for further analysis. The final concentration of DMSO was 0.1% for all experiments.
Murine melanoma B16F10 cells were gently rinsed with phosphate-buffered saline (PBS) and detached from the cell tissue culture dish using trypsin. The cells were subsequently seeded in 24-well culture plates at a density of 5 × 10^4 cells per well and allowed to incubate for 24 h before being subjected to treatment with the experimental samples. Arbutin was used as a positive control. Following the treatment, the cells were further incubated for an additional 72 h, and the absorbance was measured at 510 nm using a microplate reader. Melanin production was expressed as a percentage relative to the control cells treated with DMSO. All experiments were conducted in triplicate. The IC50 value was calculated. The percentage of total melanin content was determined using the following equation: %Totalmelanincontent=Abstreated cells-Absblank of treated cells/Abscontrol-Absblank of control×100

[2] = system: B16F10 melanoma cells; assay: Cytotoxicity assay (MTT) in B16F10 cells; format: cell-based, Murine; conditions: for Cytotoxicity: B16F10 melanoma cells, 72 h
Description: as §1
Cytotoxicity was assessed through the utilization of the MTT assay. The cell culture was initiated in 24-well plates, with a seeding density of 5 × 10^4 cells per well. After treatment with samples for 72 h, 10 µL of MTT solution (5 mg/mL in PBS) were added to each well and incubated for additional 3 h. Then, supernatant was removed and DMSO (250 µL) was added to dissolve the formed formazan crystals. The absorbance was measured at 570 nm using a microplate reader. Cells treated solely with DMSO served as the control. All experiments were conducted in triplicate. The percentage of cell viability was determined using the following calculation: %Cellviability=Abstreated cells-Absblank of treated cells/Abscontrol-Absblank of control×100

[3] = Accelerated stability test, chemical stability by HPLC; format: physicochemical; conditions: for remaining at 720 h: cosmetic formulation F1, after 30 days (1 month) at 45 °C
[4] = system: melanocytes; design: method as in Tang et al. [15]; conditions: ref Tang et al. [15]; cited from earlier work
[5] = Mus musculus, B16-F10, 72 h treatment

Row | Compound | IC50 [1, 5] [µM] | Cytotoxicity [2] [µM] | Content in formulation F1 ([3]; Day 1, HPLC) [%w/w] | Content in formulation F1 ([3]; Day 30, 45 °C, HPLC) [%w/w] | %Remaining in formulation F1 ([3]; after 30 days (1 month) at 45 °C) [%] | remaining at 720 h [3] [%] | Cytotoxicity (in words) ([2]; B16F10 cells, b13: 72 h, concentrations as high as 1000 µM) | Effect on melanin production and melanocyte growth [4] | IC50 ([1]; 72 h treatment) [µM]
1 | OC[C@H]1O[C@@H](Oc2ccc(O)cc2)[C@H](O)[C@@H](O)[C@@H]1O [Arbutin] | 807.6 ± 2.9 | > 1000 | 0.1991 ± 0.0004 | 0.1940 ± 0.0057 | 97.44 | > 90 |  |  | 
2 | C[C@@H]1O[C@@H](Oc2cc(O)c3c(=O)c(O)c(-c4ccc(O)cc4)oc3c2)[C@H](O)[C@H](O)[C@H]1O [Compound 3, kaempferol-7-O-α-L-rhamnopyranoside] | 23 ± 1.3 | > 1000 | 0.0050 ± 0.0005 | 0.0048 ± 0.0003 |  | > 90 | absence of discernible cytotoxicity; also recorded: no significant toxicity was observed |  | 
3 | CC1OC(Oc2cc(O)c3c(=O)c(OC4OC(CO)C(O)C(O)C4O)c(-c4ccc(O)cc4)oc3c2)C(O)C(O)C1O [Compound 4, kaempferol-3-O-β-D-glucopyranosyl-7-O-α-L-rhamnopyranoside] | > 200 | > 1000 |  |  |  |  |  |  | 
4 | O=c1c(O)c(-c2ccc(O)cc2)oc2cc(O)cc(O)c12 [kaempferol] |  |  |  |  |  |  |  | induce melanin production and melanocyte growth | 
5 | Quercetin-3-O-rhamnoside [Compound 1] |  |  |  |  |  |  |  |  | 135 ± 2.1
